The series deals with three-dimensional cultured human skin model (EPI-606X). As to the kind of experiment: Skin permeability test. On the procedure: A three-dimensional cultured human skin model (EPI-606X, Kurabo Industries Ltd., area: 3.8 cm^2) was placed in a 6-well plate containing PBS solution (1 mL) so that the lower portion thereof was submerged. The human skin model was then allowed to stand undisturbed for 30 minutes in an incubator under conditions of 37° C. and a carbon dioxide concentration of 5%. Next, the PBS solution in the lower wells of the skin model was replaced with HBSS(−) solution (Hanks solution, 1 mL) (to be referred to as the “receiver liquid”) and the sample solution (700 μL) obtained above was administered onto the skin model. The skin model was then allowed to stand undisturbed for 24 hours in an incubator under conditions of 37° C. and a carbon dioxide concentration of 5%.
After allowing to stand undisturbed for 24 hours, the sample solution on the skin model was removed using a pipette followed by removing the skin model from the wells and washing with PBS (−) solution. Next, a section of the skin model was cut out and placed in a 2 mL tube. Methanol (1 mL) and stainless steel beads (Tomy Co., Ltd., diameter: 5.5 mm) were added to the tube followed by crushing the section using a Multi Beads Shocker (Yasui Kikai Corp.) under conditions of 10 seconds at 2000 rpm for 10 cycles.
Following crushing, the resulting solution was transferred to a 2 mL Eppendorf tube and centrifuged for 5 minutes at 12000 rpm followed by filtering the supernatant with a filter (pore diameter: 0.22 μm) to obtain a skin model extract.
Next, the amounts of test substance in the skin model extract and receiver liquid were quantified for each test substance under the previously described HPLC Analysis Conditions 1. The total amount of test substance absorbed by the skin model in each well was calculated from the quantified value of test substance in the skin model extract. In addition, the quantified value of test substance in the receiver liquid was used as the amount of test substance that permeated the skin model. The total value A (μg) of the total amount of test substance absorbed by the skin model and the amount of test substance that permeated the skin model was then calculated.
The permeation rate (%) through the skin model for each test substance administered to the skin model was calculated according to the following equation (i). Moreover, the aforementioned skin permeability test was carried out three times for each test substance followed by calculation of each permeation rate (%). […] Furthermore, the value shown in front of the (±) symbol in the column entitled “Permeation Rate (%)” indicates the average value of the three results, while the number after the (±) symbol indicates the range of variation of the three results. Permeation rate (%)=(A/1400(amount of test substance administered to skin model) (μg)))×100 (i)

Where [1] appears, read: 0.2% by weight sample solution in PBS(-), pH 7.4, 700 μL on skin model, 24 hours, 37° C., average ± range of variation of three results.
[2] abbreviates: skin model, 24 hours, compared with non-acylated β-NMN or among the examples.

Like-named read-outs stand apart in the source and are kept apart here.

For `CCCCCCCCCCCCCCCC(=O)O[C@H]1[C@@H](O)[C@H]([n+]2cccc(C(N)=O)c2)O[C@@H]1COP(=O)([O-])O` [Example 1, 3′-palmitoyl-β-nicotinamide mononucleotide], under setting [1], the “Permeation Rate (%)” value amounted to 40 ± 4.7%. Under setting [2], the “Permeation rate, comparison in words” value is listed as “particularly high”.
With `CCCCCCCCCCCCCCCC(=O)O[C@@H]1[C@H](OC(=O)CCCCCCCCCCCCCCC)[C@@H](COP(=O)([O-])[O-])O[C@H]1[n+]1cccc(C(N)=O)c1.[Na+]` [Example 11, 2′,3′-dipalmitoyl-β-NMN sodium salt], the “Permeation rate, comparison in words” value is reported as “high permeation rate in comparison with the non-acylated β-NMN of Comparative Example 2”. The “Permeation Rate (%)” value (pH 7.4) is on record as 41 ± 2.7%.
Taken in the same sequence, the figures for `CCCCCCCCCCCC(=O)O[C@H]1[C@@H](O)[C@H]([n+]2cccc(C(N)=O)c2)O[C@@H]1COP(=O)([O-])O` [Example 3, 3′-lauroyl-β-NMN] were “particularly high” and 35 ± 4.7%.
Turning to `CCCCCCCC(=O)O[C@H]1[C@@H](O)[C@H]([n+]2cccc(C(N)=O)c2)O[C@@H]1COP(=O)([O-])O` [Example 5, 3′-octanoyl-β-NMN], the “Permeation Rate (%)” value (pH 7.4) came out at 31 ± 4.7%.
On the same count and under the same terms, to `CCCCCC(=O)O[C@@H]1[C@H](OC(=O)CCCCC)[C@@H](COP(=O)([O-])O)O[C@H]1[n+]1cccc(C(N)=O)c1` [Example 8, 2′,3′-dihexanoyl-β-NMN] belongs 37 ± 2.7%.
In the case of `CCCCCCCCCCCC(=O)O[C@@H]1[C@H](OC(=O)CCCCCCCCCCC)[C@@H](COP(=O)([O-])O)O[C@H]1[n+]1cccc(C(N)=O)c1` [Example 4, 2′,3′-dilauroyl-β-NMN], the “Permeation rate, comparison in words” value is reported as “particularly high”. For the same compound, the “Permeation Rate (%)” value (pH 7.4) is on record as 40 ± 4.7%.
`CCCCCC(=O)O[C@H]1[C@@H](O)[C@H]([n+]2cccc(C(N)=O)c2)O[C@@H]1COP(=O)([O-])O` [Example 7, 3′-hexanoyl-β-NMN]: the “Permeation Rate (%)” value (pH 7.4) is given as 29 ± 4.7%.
Consider `CCCCCCCCCCCCCCCC(=O)O[C@@H]1[C@H](OC(=O)CCCCCCCCCCCCCCC)[C@@H](COP(=O)([O-])O)O[C@H]1[n+]1cccc(C(N)=O)c1` [Example 2, 2′,3′-dipalmitoyl-β-nicotinamide mononucleotide], for which the “Permeation Rate (%)” value under setting [1] amounted to 41 ± 1.7%. For the same compound, the “Permeation rate, comparison in words” value under setting [2] is reported as “particularly high”.
With `CCCCCCCC(=O)OC1C(COP(=O)([O-])O)OC([n+]2cccc(C(N)=O)c2)C1OC(=O)CCCCCCC` (stereo not drawn) [Example 6, 2′,3′-dioctanoyl-β-NMN], the “Permeation Rate (%)” value under setting [1] turned out to be 38 ± 4.7%.
On to `NC(=O)c1ccc[n+]([C@@H]2O[C@H](COP(=O)([O-])O)[C@@H](O)[C@H]2O)c1` [Comparative Example 2, β-nicotinamide mononucleotide, reference compound], for which, where the note is “pH 7.4”, the “Permeation Rate (%)” value is 15 ± 0.4%.
Turning to `CC(=O)O[C@@H]1[C@H](OC(C)=O)[C@@H](COP(=O)([O-])O)O[C@H]1[n+]1cccc(C(N)=O)c1` [Synthesis Example 1, 2′,3′-diacetyl-β-nicotinamide mononucleotide, reference compound], the “Permeation Rate (%)” value under setting [1] worked out at 16 ± 1.7%. Besides, the “Permeation rate, comparison in words” value under setting [2] was “equal to that of the non-acylated β-NMN of Comparative Example 2”.

The values above are taken from US10654882B2, “Nicotinamide mononucleotide derivative and salt thereof, method for producing same, topical skin preparation, cosmetic and food additive” (SHOWA DENKO K.K., priority 2015, dated 2020).
